Assay results reported in ChEMBL document CHEMBL1124985, “A Free-Wilson/Fujita-Ban analysis and prediction of the analgesic potency of some 3-hydroxy- and 3-methoxy-N-alkylmorphinan-6-one opioids” (J Med Chem, 1990).

Target: Opioid receptor (Mus musculus) (UniProt P42866+P32300+P33534)
Sequence (P32300 whole entry, looked up): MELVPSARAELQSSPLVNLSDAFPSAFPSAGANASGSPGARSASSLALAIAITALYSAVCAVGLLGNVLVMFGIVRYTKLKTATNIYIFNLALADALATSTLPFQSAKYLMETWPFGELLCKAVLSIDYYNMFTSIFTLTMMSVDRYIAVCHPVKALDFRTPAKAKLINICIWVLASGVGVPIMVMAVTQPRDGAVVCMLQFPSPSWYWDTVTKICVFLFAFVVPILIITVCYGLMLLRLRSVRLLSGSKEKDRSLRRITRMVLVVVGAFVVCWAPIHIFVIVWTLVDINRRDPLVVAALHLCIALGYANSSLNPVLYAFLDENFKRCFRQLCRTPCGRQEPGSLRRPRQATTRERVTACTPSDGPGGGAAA
Sequence (P33534 whole entry, looked up): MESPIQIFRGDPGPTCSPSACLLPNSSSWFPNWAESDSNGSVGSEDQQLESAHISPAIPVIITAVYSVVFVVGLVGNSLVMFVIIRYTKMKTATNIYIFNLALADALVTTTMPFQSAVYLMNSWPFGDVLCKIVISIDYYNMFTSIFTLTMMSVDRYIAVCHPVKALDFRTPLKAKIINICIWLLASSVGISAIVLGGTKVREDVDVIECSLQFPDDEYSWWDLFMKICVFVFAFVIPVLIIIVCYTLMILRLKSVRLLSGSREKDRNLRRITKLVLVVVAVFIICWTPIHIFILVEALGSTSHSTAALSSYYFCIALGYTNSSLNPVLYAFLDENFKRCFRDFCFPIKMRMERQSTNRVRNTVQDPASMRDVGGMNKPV
Sequence (P42866 whole entry, looked up): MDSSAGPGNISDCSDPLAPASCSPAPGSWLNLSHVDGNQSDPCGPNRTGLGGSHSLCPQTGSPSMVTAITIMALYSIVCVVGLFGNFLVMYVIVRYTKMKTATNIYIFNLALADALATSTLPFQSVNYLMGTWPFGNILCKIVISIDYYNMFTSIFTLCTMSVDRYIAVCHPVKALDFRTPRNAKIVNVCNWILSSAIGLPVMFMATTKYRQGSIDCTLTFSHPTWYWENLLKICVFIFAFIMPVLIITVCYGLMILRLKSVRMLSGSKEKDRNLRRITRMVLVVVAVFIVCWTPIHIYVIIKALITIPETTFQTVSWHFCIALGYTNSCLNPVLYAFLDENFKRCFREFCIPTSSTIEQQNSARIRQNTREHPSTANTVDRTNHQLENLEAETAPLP
Description: Analgesic Potency was tested against mice

| SMILES | Log AP |
| --- | --- |
| C[C@H]1CC[C@@H]2Oc3c(O)ccc4c3[C@@]23CCN(CC2CCC2)[C@H](C4)C13 (some centres undefined) | 6.41 |
| CC1CC[C@]23CCN(C)[C@H](Cc4ccc(O)cc42)C3C1 (some centres undefined) | 5.56 |
| CC1CC[C@]23CCN(CC4CCC4)[C@H](Cc4ccc(O)cc42)C3[C@H]1C (stereo in doubt; 40) | 6.23 |
| COc1ccc2c(c1)[C@@]13CCC(C)[C@H](C)C1[C@@H](C2)N(CC1CC1)CC3 (some centres undefined) | 6.15 |
| COc1ccc2c3c1O[C@H]1CC(C)CC4[C@@H](C2)N(C)CC[C@@]341 (some centres undefined) | 5.71 |
| CC[C@H]1CCC2Oc3c(OC)ccc4c3[C@@]23CCN(C)[C@H](C4)C13 (some centres undefined) | 5.72 |
| CC[C@H]1C(C)CC[C@]23CCN(C)[C@H](Cc4ccc(OC)cc42)C13 (some centres undefined) | 5.69 |
| CC[C@H]1CCC[C@]23CCN(CC4CC4)[C@H](Cc4ccc(OC)cc42)C13 (some centres undefined) | 5.91 |
| CC1CC[C@]23CCN(CC4CC4)[C@H](Cc4ccc(O)cc42)C3C1 (some centres undefined) | 5.24 |
| CCC[C@H]1CCC[C@]23CCN(C)[C@H](Cc4ccc(OC)cc42)C13 (some centres undefined) | 4.9 |
| C[C@H]1CCC[C@]23CCN(CC4CCC4)[C@H](Cc4ccc(O)cc42)C13 (stereo in doubt; 41) | 6.6 |
| COc1ccc2c(c1)[C@]13CCN(CC4CCC4)[C@H](C2)[C@H]1CC(C)C(=O)C3 (some centres undefined) | 4.68 |
| COc1ccc2c(c1)[C@@]13CCCCC1[C@@H](C2)N(CC1CC1)CC3 (some centres undefined) | 6.87 |
| COc1ccc2c(c1)[C@]13CCN(C)[C@H](C2)[C@@H]1C=CC(=O)C3 | 6.45 |
| COc1ccc2c3c1O[C@H]1CCCC4[C@@H](C2)N(CC2CC2)CC[C@@]341 (some centres undefined) | 6.2 |
| COc1ccc2c(c1)[C@@]13CCC(C)[C@H](C)C1[C@@H](C2)N(C)CC3 (some centres undefined) | 5.95 |
| CN1CC[C@]23c4c5ccc(O)c4O[C@H]2CCCC3[C@H]1C5 (some centres undefined) | 5.95 |
| C[C@H]1CCC[C@]23CCN(CC4CCC4)[C@H](Cc4ccc(O)cc42)C13 (stereo in doubt; 46) | 6.41 |
| CC1CC[C@]23CCN(CC4CCC4)[C@H](Cc4ccc(O)cc42)C3[C@H]1C (stereo in doubt; 20) | 6.95 |
| CN1CC[C@]23CCCCC2C1Cc1ccc(O)cc13 (some centres undefined) | 5.99 |
| COc1ccc2c3c1O[C@H]1CCCC4[C@@H](C2)N(CC2CCC2)CC[C@@]341 (some centres undefined) | 5.58 |
| CC1CC[C@]23CCN(CC4CCC4)[C@H](Cc4ccc(O)cc42)C3C1 (some centres undefined) | 6.71 |
| CC[C@H]1C(C)CC[C@]23CCN(CC4CCC4)[C@H](Cc4ccc(OC)cc42)C13 (some centres undefined) | 5.04 |
| CCC[C@H]1CC[C@@H]2Oc3c(OC)ccc4c3[C@@]23CCN(C)[C@H](C4)C13 (some centres undefined) | 4.87 |
| COc1ccc2c(c1)[C@@]13CCC(C)[C@H](C)C1[C@@H](C2)N(CC1CCC1)CC3 (some centres undefined) | 5.25 |
| C[C@H]1CCC2Oc3c(O)ccc4c3[C@@]23CCN(C)[C@H](C4)C13 (some centres undefined) | 6.03 |
| Oc1ccc2c(c1)[C@@]13CCCC[C@H]1[C@@H](C2)N(CC1CC1)CC3 | 5.16 |

| SMILES | Log AP |
| --- | --- |
| COc1ccc2c(c1)[C@@]13CCC(C)CC1[C@@H](C2)N(CC1CCC1)CC3 (some centres undefined) | 5.16 |
| Oc1ccc2c(c1)[C@@]13CCCC[C@H]1[C@@H](C2)N(CC1CCC1)CC3 | 6.45 |
| CC[C@H]1C(C)CC[C@]23CCN(CC4CCC4)[C@H](Cc4ccc(O)cc42)C13 (some centres undefined) | 5.82 |
| CCC[C@H]1CCC[C@]23CCN(CC4CC4)[C@H](Cc4ccc(OC)cc42)C13 (some centres undefined) | 4.76 |
| Oc1ccc2c3c1O[C@H]1CCCC4[C@@H](C2)N(CC2CC2)CC[C@@]341 (some centres undefined) | 5.37 |
| C[C@H]1CC(=O)C[C@]23CCN(CC4CCC4)[C@H](Cc4ccc(O)cc42)[C@@H]13 | 5.75 |
| CC[C@H]1CC[C@@H]2Oc3c(OC)ccc4c3[C@@]23CCN(CC2CC2)[C@H](C4)C13 (some centres undefined) | 5.18 |
| C=C1C[C@H](C)[C@H]2[C@H]3Cc4ccc(O)cc4[C@@]2(CCN3CC2CCC2)C1 | 6.07 |
| COc1ccc2c3c1OC1CC[C@H](C)C4[C@@H](C2)N(CC2CCC2)CC[C@]314 (some centres undefined) | 5.26 |
| C[C@H]1CCC[C@]23CCN(C)[C@H](Cc4ccc(O)cc42)C13 (some centres undefined) | 5.32 |
| COc1ccc2c(c1)[C@@]13CCC[C@H](C)C1[C@@H](C2)N(CC1CC1)CC3 (some centres undefined) | 6.59 |
| COc1ccc2c(c1)[C@@]13CCCCC1[C@@H](C2)N(CC1CCC1)CC3 (some centres undefined) | 6.09 |
| COc1ccc2c(c1)[C@@]13CCC[C@H](C)C1[C@@H](C2)N(C)CC3 (some centres undefined) | 5.87 |
| CC[C@H]1CCC[C@]23CCN(C)[C@H](Cc4ccc(OC)cc42)C13 (some centres undefined) | 5.93 |
| C[C@H]1CCC[C@]23CCN(C)[C@H](Cc4ccc(O)cc42)[C@H]13 | 5.12 |
| COc1ccc2c(c1)[C@]13CCN(C)[C@H](C2)[C@@H]1C=C(C)C(=O)C3 | 5.67 |
| CC[C@H]1CCC[C@]23CCN(CC4CCC4)[C@H](Cc4ccc(OC)cc42)C13 (some centres undefined) | 5.47 |
| C[C@H]1CCC[C@]23CCN(CC4CC4)[C@H](Cc4ccc(O)cc42)C13 (some centres undefined) | 4.81 |
| COc1ccc2c(c1)[C@@]13CCC[C@H](C)C1[C@@H](C2)N(CC1CCC1)CC3 (some centres undefined) | 5.99 |
| COc1ccc2c(c1)[C@@]13CCCC[C@H]1[C@@H](C2)N(C)CC3 | 5.84 |
| C[C@H]1CC(=O)C[C@]23CCN(C)[C@H](Cc4ccc(O)cc42)[C@@H]13 | 6.32 |
| COc1ccc2c3c1OC1CC[C@H](C)C4[C@@H](C2)N(CC2CC2)CC[C@]314 (some centres undefined) | 5.16 |
| COc1ccc2c3c1OC1CC[C@H](C)C4[C@@H](C2)N(C)CC[C@]314 (some centres undefined) | 5.45 |
| COc1ccc2c(c1)[C@@]13CCC(C)CC1[C@@H](C2)N(CC1CC1)CC3 (some centres undefined) | 5.97 |
| Oc1ccc2c3c1O[C@H]1CCCC4[C@@H](C2)N(CC2CCC2)CC[C@@]341 (some centres undefined) | 6.49 |
| COc1ccc2c3c1O[C@H]1CCCC4[C@@H](C2)N(C)CC[C@@]341 (some centres undefined) | 5.54 |
| O=C1CC[C@@H]2[C@H]3Cc4ccc(O)cc4[C@@]2(CCN3CC2CCC2)C1 | 5.92 |
